The text below walks through data of PMC9849758, “Chemically diverse activity-based probes with unexpected inhibitory mechanisms targeting trypsin-like serine proteases” (Frontiers in Chemistry, 2023).

“Also recorded” adds a separate entry of the source. Where a name gives a salt, the structure may show the parent alone.

In one experiment the target is T1, Trypsin-3 (Homo sapiens, UniProt P35030).
T1 sequence (P35030 1-304): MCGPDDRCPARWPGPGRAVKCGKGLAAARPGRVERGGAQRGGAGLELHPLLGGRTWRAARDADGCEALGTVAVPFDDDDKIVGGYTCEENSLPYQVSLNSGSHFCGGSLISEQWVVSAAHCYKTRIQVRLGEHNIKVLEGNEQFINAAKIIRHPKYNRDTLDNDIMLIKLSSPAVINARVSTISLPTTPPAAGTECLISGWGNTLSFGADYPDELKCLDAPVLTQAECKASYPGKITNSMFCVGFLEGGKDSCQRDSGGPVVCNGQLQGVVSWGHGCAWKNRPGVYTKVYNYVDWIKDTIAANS
In words: Kinetic progress curves (kapp, K1, KI*, mechanism). Also on record: purchased R&D. The format is biochemical. The conditions noted are these: for Trypsin-3 kapp: apparent second-order rate constant from progress curves; for Trypsin-3 kapp / Ki: mean ± SD; for Trypsin-3 mechanism of inhibition: defined by the progress curves: slow-binding (Rev.) or irreversible (Irrev.). As to the method:
(§1) Because the compounds described in this paper were previously described as irreversible inhibitors, the IC50 value is inversely correlated with the second-order rate constant of inactivation. For a simple pseudo-first-order inactivation process, the activity after incubation with inhibitor (vi) varies with the inhibitor concentration (i), as described in the following equation: vi=v0·e^−kit where v0 is the activity in the absence of an inhibitor, k is the second-order rate constant of inactivation, and t is the time. The inactivation rate constant was determined from the time course of inhibition.
(§2) Kinetic assays were performed in the following manner. The inhibitor was mixed with the substrate, and the buffer solution with the enzyme was added at the time zero. The progress curves show the release of pNA or AMC as a function of time. Initially, no inhibitor is bound to the enzyme, and the tangent to the progress curve (dA/dt) is proportional to the free enzyme concentration. The free enzyme concentration decreases over time due to inhibitor binding kinetics, as described above. Progress curves were recorded in pseudo-first-order conditions ([I]0>>[E]0) and with less than 10% conversion of the substrate during the entire time course. In these conditions, dA/dt decreases exponentially with time. The progress curves were fitted with the integrated rate equation with GraFit7 to yield a value for kobs, a pseudo-first-order rate constant. At=Ao+vs∙t+vi−vs∙1−e^−kobs∙t/kobs where At is the absorbance at time t, A0 is the absorbance at time zero, vi is the initial rate and vs is the velocity at the steady-state.
(§3) The apparent second-order rate constant (kapp) was calculated from the slope of the linear part of the plot of kobs vs. the inhibitor concentration ([I]0). In the case of competition between the inhibitor and the substrate, kapp is smaller than the “real” second-order rate constant k discussed above because a certain fraction of the enzyme is present as an enzyme-substrate complex. kapp depends on the substrate concentration used in the experiment, as described by [Lambeir et al. (1996)].
(§4) The apparent equilibrium constants were obtained from the following equations, vi/vo=1/1+I/K1; vS/vo=1/1+I/KI* where vi is the initial rate, vs is the steady-state velocity and vo is the uninhibited initial rate.

The target in another experiment is T2, CatG (Homo sapiens, UniProt P08311).
T2 sequence (P08311 21-255): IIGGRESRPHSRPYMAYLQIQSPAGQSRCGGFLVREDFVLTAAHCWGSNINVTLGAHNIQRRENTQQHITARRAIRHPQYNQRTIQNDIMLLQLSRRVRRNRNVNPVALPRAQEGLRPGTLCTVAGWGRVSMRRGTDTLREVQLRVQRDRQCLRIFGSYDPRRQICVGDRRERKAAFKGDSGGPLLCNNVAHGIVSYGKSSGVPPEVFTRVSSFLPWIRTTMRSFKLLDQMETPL
In words: Kinetic progress curves (kapp, mechanism). The format is biochemical. More on the design: Cathepsin G (cathepsin G human neutrophil, Sigma-Aldrich); purchased Sigma-Aldrich; host or cells: human neutrophil. The conditions noted are these: for CatG mechanism of inhibition: defined by the progress curves: slow-binding (Rev.) or irreversible (Irrev.); for CatG kapp: apparent second-order rate constant from progress curves, mean ± SD. The procedure: as §1, §2, §3, §4

Setting [1] is: Trypsin-3 K1, apparent equilibrium constant of the first step of slow-binding.
[2] abbreviates: Trypsin-3 KI*, apparent equilibrium constant of the overall process.

In the case of `C#CCCCOC(=O)NC(CCCNC(=N)N)P(=O)(Oc1ccccc1)Oc1ccccc1` (stereo not shown) [32b], on Trypsin-3, the Trypsin-3 kapp is 18 × 10^2 ± 66 M^−1 s^−1 and the “Trypsin-3 mechanism of inhibition” value is “Irrev”. The “selectivity for trypsin-3 over the other tested proteases” value on Trypsin-3 (based on the kapp values) is “at least 30 fold”. The “CatG mechanism of inhibition” value at CatG is “* ^d Rev”.
Take `C#CCCCOC(=O)NC(CCCNC(=N)N)P(=O)(Oc1ccc(Cl)cc1)Oc1ccc(Cl)cc1` (stereo not shown) [33b]: at Trypsin-3, the Trypsin-3 kapp is 35 × 10^2 ± 40 M^−1 s^−1 and the “Trypsin-3 mechanism of inhibition” value was “irreversibility; also recorded: Irrev”. Further, at CatG, the “CatG mechanism of inhibition” value is reported as “* ^d Rev”.
In the case of `C#CCCCOC(=O)NC(Cc1ccc(NC(=N)N)cc1)P(=O)(Oc1ccccc1)Oc1ccccc1` (stereo not shown) [34b], at Trypsin-3 (setting [1]), the Ki was 29 ± 5 nM. Further, the Ki on Trypsin-3 (setting [2]) was 3 ± 0.3 nM. Besides, on Trypsin-3, the Trypsin-3 kapp is reported as 40 × 10^3 ± 2642 M^−1 s^−1; the “Trypsin-3 mechanism of inhibition” value is “reversible slow-binding and Rev”. Further, at Trypsin-3 (based on the kapp values), the “selectivity for trypsin-3 over β-tryptase” value amounted to 55 fold, the “selectivity for trypsin-3 versus thrombin” value is “over 2000 fold” and the “selectivity for trypsin-3 versus uPA” value was found to be 5 fold. Also, the “CatG mechanism of inhibition” value at CatG is given as “* ^d Rev”.
Turning to `C#CCCCOC(=O)NC(Cc1ccc(NC(=N)N)cc1)P(=O)(Oc1ccc(NC(C)=O)cc1)Oc1ccc(NC(C)=O)cc1` (stereo not shown) [35b], at Trypsin-3 (setting [1]), the Ki is 1 ± 0.1 nM. At Trypsin-3 (setting [2]), the Ki was 0.1 nM. Further, the “Trypsin-3 mechanism of inhibition” value at Trypsin-3 is reported as “* ^d Rev”. Also, at CatG, the CatG kapp was determined as 477 ± 67 M⁻¹ s⁻¹ and the “CatG mechanism of inhibition” value is recorded as “Rev”.
For `C#CCCCOC(=O)NC(Cc1ccc(NC(=N)N)cc1)P(=O)(Oc1ccc(Cl)cc1)Oc1ccc(Cl)cc1` (stereo not shown) [36b], the Ki at Trypsin-3 (setting [1]) was 8 ± 0.8 nM. The Ki on Trypsin-3 (setting [2]) was determined as 1 ± 0.1 nM. Besides, at Trypsin-3, the Trypsin-3 kapp is listed as 29 × 10^3 ± 6499 M^−1 s^−1 and the “Trypsin-3 mechanism of inhibition” value is “Rev”. Further, on CatG, the “CatG mechanism of inhibition” value is listed as “* ^d Rev”.
Take `C#CCCCOC(=O)NC(c1ccc(NC(=N)N)cc1)P(=O)(Oc1ccccc1)Oc1ccccc1.O=C(O)C(F)(F)F` (stereo not shown) [37b, Pent-4-yn-1-yl ((diphenoxyphosphoryl)(4-guanidinophenyl)methyl)carbamate trifluoroacetate salt]: at Trypsin-3, the Trypsin-3 kapp was determined as 293 ± 34 M⁻¹ s⁻¹ and the “Trypsin-3 mechanism of inhibition” value was “Irrev”. Besides, at CatG, the CatG kapp came out at 582 ± 2 M⁻¹ s⁻¹ and the “CatG mechanism of inhibition” value was “Irrev”.
For `C#CCCCOC(=O)NC(c1ccc(NC(=N)N)cc1)P(=O)(Oc1ccc(NC(C)=O)cc1)Oc1ccc(NC(C)=O)cc1` (stereo not shown) [38b, Pent-4-yn-1-yl ((bis(4-acetamidophenoxy)phosphoryl)(4-guanidinophenyl)methyl) carbamate], at Trypsin-3, the Trypsin-3 kapp is 358 ± 6 M⁻¹ s⁻¹ and the “Trypsin-3 mechanism of inhibition” value was “Irrev”. Besides, at CatG, the CatG kapp was 14 × 10^2 ± 52 M^−1 s^−1 and the “CatG mechanism of inhibition” value is given as “Irrev”.
In the case of `C#CCCCOC(=O)NC(c1ccc(NC(=N)N)cc1)P(=O)(Oc1ccc(Cl)cc1)Oc1ccc(Cl)cc1` (stereo not shown) [39b, Pent-4-yn-1-yl ((bis(4-chlorophenoxy)phosphoryl)(4-guanidinophenyl)methyl)carbamate], the “Trypsin-3 mechanism of inhibition” value at Trypsin-3 is recorded as “Irrev”. Moreover, at CatG, the “CatG mechanism of inhibition” value is “reversibly and Rev”.
Take `C#CCCCOC(=O)NC(C1CCN(C(=N)N)CC1)P(=O)(Oc1ccccc1)Oc1ccccc1` (stereo not shown) [41b]: on Trypsin-3, the Trypsin-3 kapp is recorded as 17 × 10^2 ± 142 M^−1 s^−1 and the “Trypsin-3 mechanism of inhibition” value is on record as “irreversible inhibition; also recorded: Irrev”.
For the compound `C[C@@H]1NC(=O)N[C@@H]1CCCCCC(=O)NCCOCCOCCOCCn1cc(CCCOC(=O)NC(CCCNC(=N)N)P(=O)(Oc2ccccc2)Oc2ccccc2)nn1` (stereo partly shown) [45b], on Trypsin-3, the Trypsin-3 kapp is 17 × 10^2 ± 122 M^−1 s^−1 and the “Trypsin-3 mechanism of inhibition” value is “Irrev”.
With `C[C@@H]1NC(=O)N[C@@H]1CCCCCC(=O)NCCOCCOCCOCCn1cc(CCCOC(=O)NC(CCCNC(=N)N)P(=O)(Oc2ccc(Cl)cc2)Oc2ccc(Cl)cc2)nn1` (stereo partly shown) [46b], at Trypsin-3, the Trypsin-3 kapp is on record as 92 × 10^2 ± 349 M^−1 s^−1 and the “Trypsin-3 mechanism of inhibition” value is on record as “Irrev”.
Regarding `C[C@@H]1NC(=O)N[C@@H]1CCCCCC(=O)NCCOCCOCCOCCn1cc(CCCOC(=O)NC(Cc2ccc(NC(=N)N)cc2)P(=O)(Oc2ccccc2)Oc2ccccc2)nn1` (stereo partly drawn) [50b, 3-(1-(18-((4R,5S)-5-methyl-2-oxoimidazolidin-4-yl)-13-oxo-3,6,9-trioxa-12-azaoctadecyl)-1H-1,2,3-triazol-4-yl)propyl (1-(diphenoxyphosphoryl)-2-(4-guanidinophenyl)ethyl)carbamate trifluoroacetate salt], the Ki at Trypsin-3 (setting [1]) amounted to 98 ± 22 nM. Further, the Ki on Trypsin-3 (setting [2]) came to 3 ± 0.2 nM. In addition, at Trypsin-3, the Trypsin-3 kapp is 49 × 10^3 ± 2979 M^−1 s^−1 and the “Trypsin-3 mechanism of inhibition” value is “Rev”. Moreover, the “CatG mechanism of inhibition” value on CatG was “* ^d Rev”.
The corresponding values for `CC(=O)Nc1ccc(OP(=O)(Oc2ccc(NC(C)=O)cc2)C(Cc2ccc(NC(=N)N)cc2)NC(=O)OCCCc2cn(CCOCCOCCOCCNC(=O)CCCCC[C@H]3NC(=O)N[C@H]3C)nn2)cc1` (stereo partly shown) [52b] are 17 ± 0.5 nM, 1 nM, 86 × 10^3 ± 8250 M^−1 s^−1, “Rev” and “* ^d Rev”.
For the compound `C[C@@H]1NC(=O)N[C@@H]1CCCCCC(=O)NCCOCCOCCOCCn1cc(CCCOC(=O)NC(Cc2ccc(NC(=N)N)cc2)P(=O)(Oc2ccc(Cl)cc2)Oc2ccc(Cl)cc2)nn1` (stereo partly shown) [54b], the Ki on Trypsin-3 (setting [1]) was determined as 6 ± 0.5 nM; on Trypsin-3 (setting [2]), 0.8 nM. In addition, the “Trypsin-3 mechanism of inhibition” value at Trypsin-3 is given as “* ^d Rev”. In addition, on CatG, the “CatG mechanism of inhibition” value is “* ^d Rev”.
For the compound `C[C@@H]1NC(=O)N[C@@H]1CCCCCC(=O)NCCOCCOCCOCCn1cc(CCCOC(=O)NC(c2ccc(NC(=N)N)cc2)P(=O)(Oc2ccccc2)Oc2ccccc2)nn1` (stereo partly shown) [55b], at Trypsin-3, the Trypsin-3 kapp amounted to 231 ± 18 M⁻¹ s⁻¹ and the “Trypsin-3 mechanism of inhibition” value is “Irrev”. Besides, at CatG, the CatG kapp worked out at 301 ± 85 M⁻¹ s⁻¹ and the “CatG mechanism of inhibition” value is on record as “Irrev”.
Consider `CC(=O)Nc1ccc(OP(=O)(Oc2ccc(NC(C)=O)cc2)C(NC(=O)OCCCc2cn(CCOCCOCCOCCNC(=O)CCCCC[C@H]3NC(=O)N[C@H]3C)nn2)c2ccc(NC(=N)N)cc2)cc1` (stereo partly shown) [56b], for which, at Trypsin-3, the Trypsin-3 kapp amounted to 334 ± 85 M⁻¹ s⁻¹ and the “Trypsin-3 mechanism of inhibition” value is “Irrev”. Moreover, on CatG, the CatG kapp turned out to be 420 ± 37 M⁻¹ s⁻¹ and the “CatG mechanism of inhibition” value is reported as “Irrev”.
Take `C[C@@H]1NC(=O)N[C@@H]1CCCCCC(=O)NCCOCCOCCOCCn1cc(CCCOC(=O)NC(c2ccc(NC(=N)N)cc2)P(=O)(Oc2ccc(Cl)cc2)Oc2ccc(Cl)cc2)nn1` (stereo partly shown) [57b]: at Trypsin-3, the Trypsin-3 kapp is 13 × 10^2 ± 340 M^−1 s^−1 and the “Trypsin-3 mechanism of inhibition” value is on record as “Irrev”. Also, on CatG, the CatG kapp is recorded as 11 × 10^2 ± 117 M^−1 s^−1; the “CatG mechanism of inhibition” value is “reversibly and Rev”.
